Test results published in patent publication US20240118268A1, “BIOMARKERS ON CELLULAR ENDOCRINE MODELS FOR ENDOCRINE DISRUPTION ASSESSMENT” (priority 2020, published 2024).
Entries after “also recorded” stand apart in the source; their conditions may differ. Like-named read-outs stand apart in the source and are kept apart here.

Columns and labels:
P2X7 receptor = target: T1, P2X7 receptor (Homo sapiens, UniProt Q99572); type: cell-based; settings: 72 h; for P2X7 receptor activation (in words): JEG-Tox; for P2X7 activation (concentration): Table 4 summary
T1 construct: P2X7 receptor is expressed by human placenta and JEG-Tox; endogenous in cells; host or cells: JEG-3 human trophoblast cell line (ATCC HTB-36) cultured in 2.5% FBS (JEG-Tox)
T1 sequence (Q99572 1-595): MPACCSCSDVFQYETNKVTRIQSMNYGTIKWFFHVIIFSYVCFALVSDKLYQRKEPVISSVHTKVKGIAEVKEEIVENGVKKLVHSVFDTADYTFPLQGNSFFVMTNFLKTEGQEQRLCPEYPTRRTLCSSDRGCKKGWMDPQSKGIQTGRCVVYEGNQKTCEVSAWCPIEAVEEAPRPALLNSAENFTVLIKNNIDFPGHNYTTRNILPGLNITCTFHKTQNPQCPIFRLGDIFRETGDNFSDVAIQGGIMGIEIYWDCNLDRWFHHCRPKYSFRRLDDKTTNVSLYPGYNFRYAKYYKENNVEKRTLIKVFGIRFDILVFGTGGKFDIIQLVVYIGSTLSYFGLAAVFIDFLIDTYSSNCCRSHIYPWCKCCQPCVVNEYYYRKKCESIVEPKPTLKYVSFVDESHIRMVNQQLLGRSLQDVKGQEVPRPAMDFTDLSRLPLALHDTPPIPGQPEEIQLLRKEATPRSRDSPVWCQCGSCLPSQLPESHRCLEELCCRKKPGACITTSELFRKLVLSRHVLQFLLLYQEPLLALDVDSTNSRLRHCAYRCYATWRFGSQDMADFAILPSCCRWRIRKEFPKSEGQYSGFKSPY
Method: (§1) P2X7 cell death receptor activation was evaluated using the YO-PRO-1® assay (Rat et al. J Biol Methods. 2017 Jan. 20; 4(1):e64). YO-PRO-1® probe only enters into cells after P2X7 receptor activation-induced pore opening, and binds to DNA, emitting fluorescence. A 1 mM YO-PRO-1 stock solution was diluted at 1/500 in PBS just before use and distributed into the wells of the microplate. After a 10-minute incubation time at room temperature, fluorescence signal was read (λex=491 nm, λem=509 nm) with a Spark cytofluorometer.
as §1, with “al., 2017).” for “al. J Biol Methods. 2017 Jan. 20; 4(1):e64).”, “(λex=485” for “(λex=491”, “λem=531” for “λem=509”

caspase-1 = experiment: Caspase 1 activity, Caspase-Glo 1 Inflammasome Assay; type: cell-based, human; settings: 72 h; for Casp-1 activation (concentration): Table 4 summary; for caspase-1 activity compared to control: highest concentration tested
Method: Caspase 1 activity was evaluated using the Caspase-Glo® 1 1 Inflammasome Assay kit. The assay was performed according to the manufacturer's instructions. Luminescence was quantified with a Spark microplate reader.
Caspase 1 activity was evaluated using the Caspase-Glo®1 Inflammasome Assay kit. The assay was performed according to the manufacturer's instructions. Luminescence was quantified with a Spark microplate reader.

JEG-Tox cells [1] = experiment: Neutral Red cell viability assay on JEG-Tox cells, 72 h; type: cell-based, human; settings: 72 h
Method: (§2) The JEG-3 human trophoblast cell line, derived from a human placental carcinoma, was obtained from the American Type Culture Collection (ATCC HTB-36). Cells were cultured in minimum Essential medium, supplemented with 10% fetal bovine serum (FBS), 1% L-glutamine, 0.5% penicillin and streptomycinin, in 75 cm2 polystyrene flasks. Cell cultures were maintained in a cell culture incubator (37° C., saturated humidity, 5% CO2). When the JEG-3 cells reached subconfluency, they were detached using trypsin-EDTA and counted. The cellular suspension was diluted and seeded either in 96-well microplates at a cellular density of 80,000 cells/mL or in 6-well microplates at 120,000 cells/mL, then kept at 37° C. for 24 h. The cells were incubated with EDCs according to example 1.
(§3) Cell viability was evaluated using the Neutral Red assay. The Neutral Red solution at 0.4% (m/v in water) was diluted in cell culture medium to obtain a working concentration of 50 μg/mL. […] The cells were then rinsed with PBS and lysed with a solution of acetic acid-ethanol (ethanol 50.6%, water 48.4% and acetic acid 1%). After homogenization, the fluorescence signal was scanned (λexc=540 nm, λem=600 nm) with a Tecan Spark microplate reader (Mannedorf, Switzerland). The cell viability was calculated compared to the control cells (the fluorescence of the control cells as 100% viability).

[2] = as above; type: cell-based, human; settings: human
Method: as §2, §3

JEG-Tox cells [3] = experiment: Chromatin condensation (Hoechst 33342) as a hallmark of apoptosis; type: cell-based, human; settings: 24 h
Method: The UV fluorescent probe Hoechst 33342 enters living and apoptotic cells, intercalating into DNA. The fluorescent signal is proportional to chromatin condensation in apoptosis. The cells were incubated with Hoechst 33342 at 10 μg/mL for 30 minutes at room temperature. The fluorescence signal was read (λex=360 nm, λem=460 nm) using a cytofluorometer (Spark).

caspase-9 = experiment: Caspase 9 activity, Caspase-Glo 9 Assay; type: cell-based, human; settings: 10 μM
Method: Caspase 9 activity was evaluated using the Caspase-Glo® 9 Assay kit. The assay was performed according to the manufacturer's instructions. Luminescence was quantified with a Spark microplate reader.

JEG-3 cells = experiment: Neutral red cell viability of JEG-3 cells with SLS or PFOA in 10% or 2.5% FBS; settings: for living cells: 2.5% FBS
Method: The choriocarcinoma-derived JEG-3 cell-line (ATCC® HTB-36™, Manassas, VA, USA), was grown as recommended by ATCC: Minimum Essential Medium Eagle's medium supplemented with 10% fetal bovine serum, 2 mM of glutamine, 50 IU/mL of penicillin and 50 IU/mL of streptomycin. Cells were detached using trypsin, counted, and then seeded at 80,000 cells/mL in 96-well microplates (200 μL by well) and Nunc® Lab-Tek® II Chamber Slide™ system for immunostaining.
Cells were incubated with sodium lauryl sulfate or perfluorooctanoic acid diluted in culture medium supplemented with either 2.5% or 10% FBS. After 24 hours, cell viability was evaluated using the neutral red assay. Neutral Red solution at 0.4% in water was diluted in culture medium with a ratio of 1:79 to give a final concentration of 50 μg/mL. Neutral Red was distributed in the plates for a 3-hour incubation time at 37° C. The cells were then rinsed with PBS to remove any remaining unincorporated dye. The dye was then released from the cells using a lysis solution (1% acetic acid, 50% ethanol and 49% H2O) and the fluorescence was measured (λex=540 nm, λem=600 nm) using Spark microplate fluorometer (Tecan, Mannedorf, Switzerland).

[4] = Table 4 summary, loss of viability >= 30% counted as cytotoxic
[5] = JEG-Tox cells, 50 μM, 72 h, read-out: cell viability

## CC12CCC(/C(=C/c3ccccc3)C1=O)C2(C)C (stereo not drawn) [3-benzylidene camphor]
P2X7 receptor; 10 μM
  P2X7 receptor activation compared to control: 1.50 fold change
P2X7 receptor
  P2X7 receptor activation (in words): triggered P2X7 receptor activation
  P2X7 activation (concentration): 1 to 10 µM
caspase-1
  effect on caspase-1 activity: no effect
  Casp-1 activation (concentration): no
JEG-Tox cells [1]; [4]
  cytotoxicity (concentration): 50 µM
[2]; [5]
  viability at 72 h, 50 µM: 70%

## Clc1ccc(C(c2ccc(Cl)cc2)C(Cl)(Cl)Cl)cc1 [4,4′DDT]
JEG-Tox cells [3]
  concentration at which chromatin condensation was initiated: 2 µg/mL

## CCC(C)(C)c1ccc(O)cc1 [4-tert-amylphenol]
P2X7 receptor; 50 μM
  P2X7 receptor activation compared to control: 1.36 fold change
P2X7 receptor
  P2X7 receptor activation (in words): triggered P2X7 receptor activation
  P2X7 activation (concentration): 0.1 to 50 µM
caspase-1
  effect on caspase-1 activity: activated caspase-1
  Casp-1 activation (concentration): 50 µM
  caspase-1 activity compared to control: 1.5 fold change
JEG-Tox cells [1]
  concentration up to which no loss of cell viability was observed: up to 50 μM
JEG-Tox cells [1]; [4]
  cytotoxicity (concentration): no

## CCCCC(CC)COC(=O)c1ccccc1C(=O)OCC(CC)CCCC (stereo not drawn) [DEHP, Di(2-ethylhexyl)phtalate]
P2X7 receptor; 10 μM
  P2X7 receptor activation compared to control: 1.16 fold change
P2X7 receptor
  P2X7 receptor activation (in words): triggered P2X7 receptor activation
  P2X7 activation (concentration): 10 µM
caspase-9
  caspase-9 activity compared to control: 1.20 fold change
caspase-1
  effect on caspase-1 activity: no effect
  Casp-1 activation (concentration): no
JEG-Tox cells [1]; [4]
  cytotoxicity (concentration): 50 µM
[2]; [5]
  viability at 72 h, 50 µM: 25%

## CCCCCCCCCCCCOS(=O)(=O)[O-].[Na+] [SLS, sodium lauryl sulfate]
JEG-3 cells; 30 μg/mL, 24 h
  living cells: 37%
JEG-3 cells; 50 μg/mL, 24 h
  living cells: 10%
JEG-3 cells; 10% FBS, all tested concentrations (up to 50 μg/mL), 24 h, sulfate
  effect on JEG-3 cell viability: no effect; also recorded: did not observe any cell death
JEG-3 cells; diluted in 2.5% FBS
  concentration inducing a dramatic loss of cell viability: 30000 ng/mL

## CCCCOC(=O)c1ccccc1C(=O)OCc1ccccc1 [benzyl butyl phthalate]
P2X7 receptor; 10 μM
  P2X7 receptor activation compared to control: 1.36 fold change
P2X7 receptor
  P2X7 receptor activation (in words): triggered P2X7 receptor activation
  P2X7 activation (concentration): 0.1 to 10 µM
caspase-9
  caspase-9 activity compared to control: 1.28 fold change
caspase-1
  effect on caspase-1 activity: no effect
  Casp-1 activation (concentration): no
JEG-Tox cells [1]; [4]
  cytotoxicity (concentration): 50 µM
[2]; 50 μM, 72 h, read-out: cell viability
  viability at 72 h, 50 µM: 40%

## CCCCOC(=O)c1ccccc1C(=O)OCCCC [dibutyl phthalate]
P2X7 receptor; 10 μM
  P2X7 receptor activation compared to control: 1.6 fold change
P2X7 receptor
  P2X7 receptor activation (in words): triggered P2X7 receptor activation
  P2X7 activation (concentration): 0.01 to 50 µM
caspase-1
  effect on caspase-1 activity: no effect
  Casp-1 activation (concentration): no
JEG-Tox cells [1]; human
  cytotoxicity (concentration): 50 µM
[2]
  viability at 72 h, 50 µM: 55%

## CC/C(=C(/CC)c1ccc(O)cc1)c1ccc(O)cc1 [diethylstilbestrol]
P2X7 receptor; 7.5 μM
  P2X7 receptor activation compared to control: 1.48 fold change
P2X7 receptor
  P2X7 receptor activation (in words): triggered P2X7 receptor activation
  P2X7 activation (concentration): 7.5 µM
caspase-1
  effect on caspase-1 activity: activated caspase-1
  Casp-1 activation (concentration): 7.5 µM
  caspase-1 activity compared to control: 1.84 fold change
JEG-Tox cells [1]; [4]
  cytotoxicity (concentration): 15 µM
[2]; JEG-Tox cells, 15 μM, 72 h
  viability at 72 h, 15 µM: 40%

## CCO [ethanol]
JEG-Tox cells [3]
  concentration at which chromatin condensation was initiated: 2.5%

## OCCOc1ccccc1 [phenoxyethanol]
JEG-Tox cells [3]
  concentration at which chromatin condensation was initiated: 0.15%

## CCCOC(=O)c1ccc(O)cc1 [propylparaben]
P2X7 receptor; 100 μM
  P2X7 receptor activation compared to control: 1.69 fold change
P2X7 receptor
  P2X7 receptor activation (in words): triggered P2X7 receptor activation
  P2X7 activation (concentration): 1 to 100 µM
JEG-Tox cells [3]
  concentration at which chromatin condensation was initiated: 20 µg/mL
caspase-1
  effect on caspase-1 activity: activated caspase-1
  Casp-1 activation (concentration): 100 µM
  caspase-1 activity compared to control: 2.7 fold change
[2]
  viability at 72 h, 100 µM: 87%

## CCOP(=S)(OCC)Oc1cnc2ccccc2n1 [quinalphos]
JEG-Tox cells [3]
  concentration at which chromatin condensation was initiated: 0.3 µg/mL

## Oc1cc(Cl)ccc1Oc1ccc(Cl)cc1Cl [triclosan]
P2X7 receptor; 1 μM
  P2X7 receptor activation compared to control: 1.13 fold change
P2X7 receptor
  P2X7 receptor activation (in words): triggered P2X7 receptor activation
  P2X7 activation (concentration): 1 µM
caspase-1
  effect on caspase-1 activity: no effect
  Casp-1 activation (concentration): No
JEG-Tox cells [1]; [4]
  cytotoxicity (concentration): 10 µM
[2]; JEG-Tox cells, 10 μM, 72 h
  viability at 72 h, 10 µM: 60%
